Laboratory results reported in patent publication US20240002846A1, “COMPOSITIONS AND METHODS FOR THE DIAGNOSIS AND TREATMENT OF ITCH” (Duke University, priority 2020, published 2024).
Entries after “also recorded” stand apart in the source; their conditions may differ.

Key:
[1] = tested on: extracellular release of miR-146a; assay: Extracellular release of miR-146a from cultured human keratinocytes (RT-qPCR); assay type: cell-based
Protocol: Primary human keratinocytes were cultured as previously described (Chen et al. J. Biol. Chem. 2016, 291, 10252-10262). In brief, surgically discarded foreskin samples, obtained from Duke Children's Hospital in accordance to institutionally approved IRB protocol, were incubated with Dispase (Gibco, Gaithersburg, MD, 4 U/mL) for 12-16 h at 4° C. followed by 0.05% trypsin (Gibco, Gaithersburg, MD) for 10-20 min at 37° C. Cells were maintained in keratinocyte serum-free media (Invitrogen, Waltham, MA) with 5% CO2 at 37° C. and used at passage 2-3.
Measurement of released vesicles and extracellular miR-146a from cultured keratinocytes or sera Medium for the cultured keratinocytes was replaced with serum-free medium 2 h before LPC stimulation. Fifteen minutes after LPC, the supernatant of the cells was harvested and subjected to two steps of centrifugation (i) 300 g for 5 min to eliminate remaining cells, (ii) 16,000 g for 30 min to eliminate cell debris and apoptotic bodies. Finally, cell-free supernatants were further purified using a Vesicular Isolation kit (Invitrogen, Waltham, MA) according to the manufacturer's instructions, with final product resuspended in ice-cold PBS. Total RNA extraction was then carried out using a Total RNA Isolation kit (Invitrogen, Waltham, MA). […]

rTRPV4-R746D = rTRPV4-R746D (Rattus norvegicus, UniProt Q9ERZ8, R746D); assay: Inside-out patch-clamp, HEK cells transfected with rTRPV4-R746D; assay type: biochemical; parameters: expressed in transfected cells; host or cells: HEK293; settings: 5 μM LPC 18:1
Protocol: Cell culture and transfection. HEK293 cells (ATCC® CRL-1573) were cultured on poly-D-lysine coated coverslips in 24-well plate containing DMEM media with high-Glucose (Gibco, Gaithersburg, MD) supplemented with 10% fetal bovine serum (FBS, HyClone Laboratories, Logan, UT) and 100 U/mL of penicillin/streptomycin (Gibco, Gaithersburg, MD). Cell cultures were maintained with 5% of CO2 in a humidified incubator at 37° C. HEK cells were transfected with rat or human wild type or mutant TRPV4 channels with EGFP or YFP coupled to their C-termini (1.5 μg of plasmid for excised patch clamp and Ca^2+ imaging and 200 ng for single-channel experiments). […]
Electrophysiology. Currents were recorded using the inside-out configuration of the patch-clamp technique (Hamill et al. Pflugers Arch. 1981, 391, 85-100). […] Mean current values in response to GSK1016790A or LPC 18:1 were measured after channel activation had reached the steady-state (˜3 min). […] Currents were low-pass filtered at 2 kHz and sampled at 10 kHz with an EPC 10 amplifier (HEKA Elektronik) and were plotted and analyzed with Igor Pro (Wavemetrics Inc.).

rTRPV4-R746D, sequence (Q9ERZ8 whole entry R746D): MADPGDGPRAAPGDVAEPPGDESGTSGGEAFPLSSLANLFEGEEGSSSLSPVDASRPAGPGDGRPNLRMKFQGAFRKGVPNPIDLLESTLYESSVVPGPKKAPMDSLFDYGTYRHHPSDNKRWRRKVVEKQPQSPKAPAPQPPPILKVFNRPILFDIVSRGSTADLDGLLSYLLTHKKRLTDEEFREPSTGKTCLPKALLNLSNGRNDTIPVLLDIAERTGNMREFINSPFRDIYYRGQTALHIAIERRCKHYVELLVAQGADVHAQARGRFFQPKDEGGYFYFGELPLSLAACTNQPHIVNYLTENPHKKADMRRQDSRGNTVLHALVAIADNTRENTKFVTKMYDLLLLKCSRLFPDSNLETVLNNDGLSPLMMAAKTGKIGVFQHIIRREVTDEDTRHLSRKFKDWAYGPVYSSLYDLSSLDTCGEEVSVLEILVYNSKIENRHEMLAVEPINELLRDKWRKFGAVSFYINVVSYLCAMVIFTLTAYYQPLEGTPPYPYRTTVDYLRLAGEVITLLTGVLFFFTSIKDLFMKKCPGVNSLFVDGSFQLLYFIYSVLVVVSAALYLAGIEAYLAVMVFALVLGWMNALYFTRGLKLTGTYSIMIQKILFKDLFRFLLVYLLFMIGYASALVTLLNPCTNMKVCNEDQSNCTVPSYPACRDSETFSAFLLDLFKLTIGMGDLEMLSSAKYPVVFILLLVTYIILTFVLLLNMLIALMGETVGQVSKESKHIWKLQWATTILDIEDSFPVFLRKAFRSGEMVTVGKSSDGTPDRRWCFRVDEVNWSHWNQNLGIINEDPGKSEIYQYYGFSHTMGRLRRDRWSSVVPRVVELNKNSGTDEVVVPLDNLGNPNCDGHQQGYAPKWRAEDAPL

Compound: Cc1c(C(=O)Nc2cccc(C(F)(F)F)c2)cc(-c2ccccc2)n1CCCN1CCOCC1 [HC067047]
- effect of TRPV4 inhibitors on LPC-induced release of miR-146a ([1]; inhibitor 10 μM): completely eliminated

Compound: N#CC(=C(/N)Sc1ccccc1N)/C(C#N)=C(\N)Sc1ccccc1N [U0126]
- effect of MEK inhibitor on LPC-induced release of miR-146a ([1]; 10 μM): eliminated; also recorded: abolished

Compound: LPC 18:1
- average activation of currents, normalized to 1 μM GSK101 (rTRPV4-R746D): 15±3%
